Results as given in the NIST ThermoML archive (doi:10.1016/j.jct.2018.11.010).

Assay: xn = mol fraction of the nth substance listed
Conditions: Liquid, Vibrating tube method

CCCCCCCO [heptan-1-ol] + CCCCOCCCC
mass density [kg/m3]
Conditions | x2 = 0 | x2 = 0.1488 | x2 = 0.3201 | x2 = 0.4944 | x2 = 0.7014 | x2 = 0.8534
298.15 K, 100 kPa | 818.7 | 810.1 | 800.3 | 790.9 | 779.5 | 771.7
298.15 K, 1000 kPa | 819.3 | 810.8 | 801 | 791.6 | 780.2 | 772.5
298.15 K, 5000 kPa | 821.9 | 813.5 | 803.9 | 794.6 | 783.5 | 775.8
298.15 K, 10000 kPa | 824.9 | 816.7 | 807.3 | 798.3 | 787.3 | 779.9
298.15 K, 15000 kPa | 828 | 819.9 | 810.6 | 801.8 | 791 | 783.7
298.15 K, 20000 kPa | 830.8 | 822.9 | 813.8 | 805 | 794.5 | 787.4
298.15 K, 25000 kPa | 833.5 | 825.8 | 816.9 | 808.3 | 797.9 | 790.8
298.15 K, 30000 kPa | 836.3 | 828.6 | 819.8 | 811.4 | 801.1 | 794.2
298.15 K, 35000 kPa | 838.8 | 831.2 | 822.6 | 814.3 | 804.2 | 797.4
298.15 K, 40000 kPa | 841.3 | 833.9 | 825.3 | 817.1 | 807.3 | 800.5
298.15 K, 45000 kPa | 843.8 | 836.5 | 828 | 819.9 | 810.2 | 803.5
298.15 K, 50000 kPa | 846.2 | 838.9 | 830.6 | 822.6 | 813 | 806.4
298.15 K, 55000 kPa | 848.5 | 841.3 | 833.1 | 825.3 | 815.7 | 809.2
298.15 K, 60000 kPa | 850.8 | 843.7 | 835.5 | 827.8 | 818.4 | 811.9
298.15 K, 65000 kPa | 853 | 845.9 | 837.9 | 830.3 | 820.9 | 814.6
298.15 K, 70000 kPa | 855.2 | 848.2 | 840.3 | 832.7 | 823.5 | 817.2
298.15 K, 80000 kPa | 859.4 | 852.6 | 844.8 | 837.3 | 828.3 | 822.2
298.15 K, 90000 kPa | 863.5 | 856.7 | 849.1 | 841.9 | 833 | 827
298.15 K, 100000 kPa | 867.3 | 860.7 | 853.2 | 846.1 | 837.4 | 831.5
298.15 K, 110000 kPa | 871.1 | 864.6 | 857.2 | 850.2 | 841.6 | 835.8
298.15 K, 120000 kPa | 874.6 | 868.2 | 861 | 854 | 845.6 | 839.9
298.15 K, 130000 kPa | 878.1 | 871.8 | 864.6 | 857.8 | 849.6 | 843.9
298.15 K, 140000 kPa | 881.5 | 875.3 | 868.2 | 861.4 | 853.3 | 847.8
313.15 K, 100 kPa | 808 | 799 | 788.8 | 778.9 | 767 | 758.8
313.15 K, 1000 kPa | 808.6 | 799.7 | 789.5 | 779.7 | 767.8 | 759.7
313.15 K, 5000 kPa | 811.4 | 802.6 | 792.5 | 783 | 771.3 | 763.3
313.15 K, 10000 kPa | 814.7 | 806.1 | 796.3 | 786.9 | 775.6 | 767.8
313.15 K, 15000 kPa | 817.9 | 809.5 | 799.8 | 790.7 | 779.5 | 771.9
313.15 K, 20000 kPa | 821 | 812.7 | 803.3 | 794.3 | 783.4 | 775.9
313.15 K, 25000 kPa | 823.8 | 815.6 | 806.4 | 797.5 | 786.8 | 779.4
313.15 K, 30000 kPa | 826.8 | 818.8 | 809.7 | 801 | 790.5 | 783.3
313.15 K, 35000 kPa | 829.5 | 821.6 | 812.7 | 804.2 | 793.7 | 786.7
313.15 K, 40000 kPa | 832.1 | 824.4 | 815.5 | 807.1 | 796.9 | 790
313.15 K, 45000 kPa | 834.7 | 827 | 818.3 | 810.1 | 800 | 793.2
313.15 K, 50000 kPa | 837.2 | 829.7 | 821.1 | 812.9 | 803 | 796.3
313.15 K, 55000 kPa | 839.7 | 832.3 | 823.8 | 815.7 | 805.9 | 799.3
313.15 K, 60000 kPa | 842.1 | 834.8 | 826.4 | 818.4 | 808.7 | 802.2
313.15 K, 65000 kPa | 844.4 | 837.2 | 828.9 | 821 | 811.5 | 804.9
313.15 K, 70000 kPa | 846.7 | 839.6 | 831.3 | 823.5 | 814.1 | 807.7
313.15 K, 80000 kPa | 851.1 | 844 | 836 | 828.4 | 819.1 | 812.9
313.15 K, 90000 kPa | 855.3 | 848.4 | 840.6 | 833.2 | 824 | 817.9
313.15 K, 100000 kPa | 859.3 | 852.5 | 844.8 | 837.5 | 828.7 | 822.6
313.15 K, 110000 kPa | 863.2 | 856.6 | 849.1 | 841.8 | 833.2 | 827.2
313.15 K, 120000 kPa | 867 | 860.4 | 853 | 845.9 | 837.3 | 831.5
313.15 K, 130000 kPa | 870.6 | 864.2 | 856.9 | 849.9 | 841.4 | 835.7
313.15 K, 140000 kPa | 874.2 | 867.8 | 860.6 | 853.7 | 845.4 | 839.8
333.15 K, 100 kPa | 793.3 | 783.8 | 772.9 | 762.5 | 749.9 | 741.3
333.15 K, 1000 kPa | 794 | 784.6 | 773.7 | 763.4 | 750.8 | 742.3
333.15 K, 5000 kPa | 797.1 | 787.8 | 777.2 | 767.1 | 754.8 | 746.5
333.15 K, 10000 kPa | 800.7 | 791.7 | 781.4 | 771.5 | 759.6 | 751.4
333.15 K, 15000 kPa | 804.3 | 795.4 | 785.3 | 775.8 | 764.1 | 756.1
333.15 K, 20000 kPa | 807.7 | 798.9 | 789.1 | 779.6 | 768.3 | 760.5
333.15 K, 25000 kPa | 810.8 | 802.3 | 792.6 | 783.4 | 772.2 | 764.7
333.15 K, 30000 kPa | 813.9 | 805.5 | 796 | 787 | 776.1 | 768.6
333.15 K, 35000 kPa | 816.9 | 808.7 | 799.3 | 790.4 | 779.7 | 772.4
333.15 K, 40000 kPa | 819.8 | 811.7 | 802.5 | 793.7 | 783.2 | 776.1
333.15 K, 45000 kPa | 822.4 | 814.5 | 805.5 | 796.9 | 786.5 | 779.5
333.15 K, 50000 kPa | 825.2 | 817.4 | 808.5 | 800 | 789.8 | 782.9
333.15 K, 55000 kPa | 827.8 | 820.1 | 811.3 | 802.9 | 792.9 | 786
333.15 K, 60000 kPa | 830.3 | 822.7 | 814.1 | 805.8 | 795.9 | 789.2
333.15 K, 65000 kPa | 832.9 | 825.3 | 816.8 | 808.6 | 798.9 | 792.2
333.15 K, 70000 kPa | 835.3 | 827.9 | 819.5 | 811.4 | 801.7 | 795.1
333.15 K, 80000 kPa | 839.9 | 832.7 | 824.4 | 816.6 | 807.1 | 800.7
333.15 K, 90000 kPa | 844.5 | 837.4 | 829.3 | 821.6 | 812.3 | 806
333.15 K, 100000 kPa | 848.7 | 841.7 | 833.8 | 826.3 | 817.2 | 811.1
333.15 K, 110000 kPa | 852.8 | 845.9 | 838.2 | 830.8 | 821.9 | 815.9
333.15 K, 120000 kPa | 856.8 | 850 | 842.3 | 835.1 | 826.4 | 820.5
333.15 K, 130000 kPa | 860.5 | 853.9 | 846.4 | 839.3 | 830.7 | 824.8
333.15 K, 140000 kPa | 864.3 | – | – | – | – | –
